Results on eight compounds are retold here after paper PMC6226472, “Cardol triene inhibits dengue infectivity by targeting kl loops and preventing envelope fusion” (Scientific Reports, 2018).

Like-named read-outs stand apart in the source and are kept apart here.

Data set [1] concerns DENV2 NGC. Kind of data set: Efficacy study (EC50) in DENV2 infected Vero cells, plaque titration. It is filed as cell-based, Dengue virus. As to conditions: for EC50: DENV2 NGC (M.O.I. of 0.1) infected Vero cells, plaque titration, 3 days; for TI (therapeutic index, CC50/EC50): Vero CC50 / DENV2 EC50. The protocol: Next, we studied the efficacies (EC50) of the phenolic lipid homologues against DENV2 infectivity in Vero cells. Briefly, compounds at 10 different concentrations were added to DENV2-infected Vero cells (M.O.I. of 0.1) during and post infection and the viral inhibition was determined by plaque titration. […] Noted that anacardic acids were major components of CNSL extracts and all homologues were purified directly from CNSL itself.
Next, each homologue was analyzed for effective concentration (EC50). Vero (5 × 10^4) cells were seeded, and infected with DENV2 (M.O.I. of 0.1) as previously described. Phenolic lipid mixtures and homologues were serially diluted in DMSO to the final concentrations as follows; 0, 0.5, 1, 1.5, 2, 2.5, 5, 7.5, 10, 25, and 50 µM. DMSO at the concentration of 1% was used as a mock treatment referring to 100% infection. Infected cells were treated with the designated compounds during and post infection. Supernatants were collected at 3 days after infection for analysis of virion production by plaque titration. Non-linear regression analysis was used to determine the effective concentrations. […] The therapeutic index (TI) was a ration of CC50/EC50 of the compound.

Data set [2] is described as follows: Cytotoxic concentration (CC50), MTS. As to conditions: African green monkey, Vero cells. Format: cell-based. As for the experimental part: Cytotoxic concentrations (CC50) were also studied using Vero cells. Briefly, the 10^4 cells were seeded into each well of 96-well plates. After an overnight incubation, phenolic lipids were serially diluted in DMSO to the final concentrations as follows; 25, 50, 100, 200, 300, 400, and 500 µM. Each concentration was performed in quadruplicates. DMSO at 1% was used as a mock treatment referring to 100% cell viability. Cells were incubated for 48 h before cell viability was accessed using CellTiler 96® Aqueous One Solution Cell Proliferation Assay kit (Promega, Wisconsin, USA). Non-linear regression analysis was used to determine cytotoxic concentrations (CC50) of each experiment.

Data set [3] concerns hepatitis C virus (HCV). More on the design: method as in PMID 25658101. As to conditions: cited from earlier work.
Data set [4] relates to AGS. More on the design: method as in PMID 25726174. The following applies: cited from earlier work.
The subject of data set [5] is K562. More on the design: method as in PMID 25726174. The following applies: cited from earlier work.
Data set [6] is described as follows: Solubility in DMSO. It is filed as physicochemical.
In data set [7] the test system is BHK-21/DENV2 replicon cells. Briefly: Replicon inhibition study, RT-qPCR of DENV2 NS1. It is filed as cell-based, Dengue virus. The following applies: 72 h. The protocol: We analyzed the replication inhibition using BHK-21/DENV2 replicon cells stably expressed the non-structural proteins. Cardol triene at 10 µM and 20 µM were added to the replicon cells for 72 h and the replication inhibition was accessed by RT-qPCR of DENV2 NS1. Ribavirin, a known inhibitor of flaviviral replication, was used as a positive inhibition control. […] Replicon cell viability under cardol triene treatment was also analyzed using an MTS assay. […] Therefore, we concluded that cardol triene inhibited DENV RNA replicon replication, potentially in dose-dependent manner.
BHK-21 (5 × 10^4) cells expressing DENV-2 replicon (BHK-21/DENV2)[44] were seeded as previously described. Cardol triene at 10 µM and 20 µM, DMSO, and ribavirin (TargetMol, USA) were added to the replicon cells and incubated at 37 °C for 3 days. Cells lysates were collected and viral RNA was quantified by RT-qPCR as previously described. Data were reported as percent inhibition compared with ribavirin. Three biological replicates were performed and results were means and SEM of all replicates.

The mark [8] stands for this setting: Dengue virus, 72 h, read-out: EC50.

As usually defined, the EC50 is the midpoint of the concentration-response curve. Consider `CCC/C=C/C/C=C/CCCCCCCc1cccc(O)c1C(=O)O` [Anacardic acid diene, 6-[8(Z), 11(Z)-pentadecadienyl]salicylic acid], for which the EC50 entry in data set [1] is on record as “Not inhibited”. In data set [2], this compound yielded a CC50 at 48 h of 112 ± 8.57 µM.

As for `CCCCCC/C=C\CCCCCCCc1cccc(O)c1C(=O)O` [Anacardic acid monoene, 6-[8(Z)-pentadecenyl]salicylic acid], the half-maximal effective concentration (EC50) in data set [1] (setting [8]) is 12.6 ± 0.84 µM. Besides, in data set [1], the “TI (therapeutic index, CC50/EC50)” value is 5.88. In data set [2], this compound had a CC50 at 48 h of 74 ± 0.85 µM.

In the case of `CCCCCCCCCCCCCCCc1cccc(O)c1C(=O)O` [Anacardic acid saturated, 6-pentadecylsalicylic acid], the results for the half-maximal effective concentration (EC50) in data set [1] (setting [8]) and in data set [3] were 4.31 ± 1.17 µM and 7.25 µM, respectively. For the same compound, in data set [1], the “TI (therapeutic index, CC50/EC50)” value is 15.39. Besides, the CC50 at 48 h in data set [2] came to 66.3 ± 1.58 µM. For the same compound, the CC50 in data set [4] was 41.6 µM; in data set [5], 25.4 µM.

`C=CC/C=C/C/C=C/CCCCCCCc1cccc(O)c1C(=O)O` [Anacardic acid triene, 6-[8(Z), 11(Z), 14-pentadecatrienyl]salicylic acid]: in data set [1] (setting [8]), the 50% effective concentration (EC50) turned out to be 7.48 ± 2.14 µM. Moreover, the “TI (therapeutic index, CC50/EC50)” value in data set [1] came out at 15.38. In data set [2], this compound returned a CC50 at 48 h of 115 ± 14.1 µM.

For `CCCCCCCCCCCCCCCc1cccc(O)c1` [Cardanol saturated], the EC50 in data set [1] (setting [8]) was found to be 5.89 ± 2.83 µM. For the same compound, the “TI (therapeutic index, CC50/EC50)” value in data set [1] was 7.39. Also, the CC50 at 48 h in data set [2] came to 43.5 ± 1.1 µM.

As to `C=CC/C=C/C/C=C/CCCCCCCc1cccc(O)c1` [Cardanol triene, 3-[8(Z), 11(Z), 14-pentadecatrienyl]phenol], the “solubility in DMSO” value in data set [6] is recorded as “insoluble”.

Turning to `CCCCCCCCCCCCCCCc1cc(O)cc(O)c1` [Cardol saturated], the EC50 in data set [1] (setting [8]) came to 12.7 ± 0.67 µM. Further, the “TI (therapeutic index, CC50/EC50)” value in data set [1] is 4.62. In data set [2], this compound came in with a CC50 at 48 h of 58.75 ± 0.43 µM.

On to `NC(=O)c1ncn([C@@H]2O[C@H](CO)[C@@H](O)[C@H]2O)n1` [ribavirin, reference compound], for which the “DENV2 RNA inhibition” value in data set [7] (10 µM) is 98.42 ± 0.68%; in data set [7] (20 µM) it was 98.09 ± 0.72%.
